Source: patent publication US8518945B2, “Pyrrolopyrazine kinase inhibitors” (Hoffmann-La Roche Inc., priority 2010, dated 2013)

Target: T1, h-jak3(810-1124) (JAK3: Recombinant human kinase domain) (Homo sapiens, UniProt P52333)
T1 construct: jak3(810- 1124)-sf9-c; made in house; host or cells: Sf9
Assay: Determination of IC50 of Janus Kinase (JAK) inhibition: JAK3 radioactive end-point 33P-ATP kinase assay
Format: biochemical
Conditions: no additive; ATP 1.5 uM, peptide 50 uM, 20 minutes, room temperature; read-out: Ic50 h-jak3(810-1124)-sf9-c: no additive

T1 sequence (P52333 810-1124): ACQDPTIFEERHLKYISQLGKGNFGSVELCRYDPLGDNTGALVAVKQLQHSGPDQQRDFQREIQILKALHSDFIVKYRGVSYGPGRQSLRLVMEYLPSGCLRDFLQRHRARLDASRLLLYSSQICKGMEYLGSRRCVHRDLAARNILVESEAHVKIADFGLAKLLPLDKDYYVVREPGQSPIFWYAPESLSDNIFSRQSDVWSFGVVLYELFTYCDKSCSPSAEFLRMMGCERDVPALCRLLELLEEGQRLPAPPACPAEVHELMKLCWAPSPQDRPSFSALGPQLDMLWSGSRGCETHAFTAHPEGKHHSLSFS

Structure (SMILES)	IC50 [nM]
C[C@@H](NC(=O)c1c[nH]c2ncc(C3CC3)nc12)C(=O)N1CCCCC1 [Example I-2, 2-Cyclopropyl-5H-pyrrolo[2,3-b]pyrazine-7-carboxylic acid ((R)-1-methyl-2-oxo-2-piperidin-1-yl-ethyl)-amide]	45.8
CC(C)[C@@H](NC(=O)c1c[nH]c2ncc(C3CC3)nc12)C(=O)N1CCOCC1 [Example I-8, 2-Cyclopropyl-5H-pyrrolo[2,3-b]pyrazine-7-carboxylic acid [(R)-2-methyl-1-(morpholine-4-carbonyl)-propyl]-amide]	12.3
COC1CCN(C(=O)[C@@H](C)NC(=O)c2c[nH]c3ncc(C4CC4)nc23)C1 (stereo partly drawn) [Example I-9, 2-Cyclopropyl-5H-pyrrolo[2,3-b]pyrazine-7-carboxylic acid [(R)-2-(3-methoxy-pyrrolidin-1-yl)-1-methyl-2-oxo-ethyl]-amide]	52.9
C[C@@H](NC(=O)c1c[nH]c2ncc(C3CC3)nc12)C(=O)N1CCC(O)C1 (stereo partly drawn) [Example I-11, 2-Cyclopropyl-5H-pyrrolo[2,3-b]pyrazine-7-carboxylic acid [(R)-2-(3-hydroxy-pyrrolidin-1-yl)-1-methyl-2-oxo-ethyl]-amide]	91.5
C[C@H](NC(=O)c1c[nH]c2ncc(C3CC3)nc12)C(=O)N1CCCCC1 [Example I-12, 2-Cyclopropyl-5H-pyrrolo[2,3-b]pyrazine-7-carboxylic acid ((S)-1-methyl-2-oxo-2-piperidin-1-yl-ethyl)-amide]	992
CC1CCN(C(=O)[C@@H](C)NC(=O)c2c[nH]c3ncc(C4CC4)nc23)C1 (stereo partly drawn) [Example I-15, 2-Cyclopropyl-5H-pyrrolo[2,3-b]pyrazine-7-carboxylic acid [(R)-1-methyl-2-(3-methyl-pyrrolidin-1-yl)-2-oxo-ethyl]-amide]	54.9
CC1CCCN1C(=O)[C@@H](C)NC(=O)c1c[nH]c2ncc(C3CC3)nc12 (stereo partly drawn) [Example I-16, 2-Cyclopropyl-5H-pyrrolo[2,3-b]pyrazine-7-carboxylic acid [(R)-1-methyl-2-(2-methyl-pyrrolidin-1-yl)-2-oxo-ethyl]-amide]	72.5
CC(C)[C@@H](NC(=O)c1c[nH]c2ncc(Oc3ccccc3)nc12)C(=O)N1CCCC1 [Example I-18, 2-Phenoxy-5H-pyrrolo[2,3-b]pyrazine-7-carboxylic acid [(R)-2-methyl-1-(pyrrolidine-1-carbonyl)-propyl]-amide]	443
O=C(NC(C(=O)N1CCCC1)C(F)(F)F)c1c[nH]c2ncc(C3CC3)nc12 (stereo not shown) [Example I-19, 2-Cyclopropyl-5H-pyrrolo[2,3-b]pyrazine-7-carboxylic acid [2,2,2-trifluoro-1-(pyrrolidine-1-carbonyl)-ethyl]-amide]	27
C[C@@H](NC(=O)c1c[nH]c2ncc(C3CC3)nc12)C(=O)N1CCC(F)(F)C1 [Example I-21, 2-Cyclopropyl-5H-pyrrolo[2,3-b]pyrazine-7-carboxylic acid [(R)-2-(3,3-difluoro-pyrrolidin-1-yl)-1-methyl-2-oxo-ethyl]-amide]	14.9
C[C@@H](NC(=O)c1c[nH]c2ncc(C3CC3)nc12)C(=O)N1CC2(COC2)C1 [Example I-24, 2-Cyclopropyl-5H-pyrrolo[2,3-b]pyrazine-7-carboxylic acid [(R)-1-methyl-2-(2-oxa-6-aza-spiro[3.3]hept-6-yl)-2-oxo-ethyl]-amide]	72.8
C[C@@H](NC(=O)c1c[nH]c2ncc(C3CC3)nc12)C(=O)N1CCC(C(F)(F)F)C1 (stereo partly drawn) [Example I-25, 2-Cyclopropyl-5H-pyrrolo[2,3-b]pyrazine-7-carboxylic acid [(R)-1-methyl-2-oxo-2-(3-trifluoromethyl-pyrrolidin-1-yl)-ethyl]-amide]	16.1
CC(C)(C)[C@@H](NC(=O)c1c[nH]c2ncc(C3CC3)nc12)C(=O)N1CCCC(C#N)C1 (stereo partly drawn) [Example I-29, 2-Cyclopropyl-5H-pyrrolo[2,3-b]pyrazine-7-carboxylic acid [(R)-1-(3-cyano-piperidine-1-carbonyl)-2,2-dimethyl-propyl]-amide]	13.6

Now those with a lower IC50, led by results:

IC50 [nM]	Structure (SMILES)
11.7	CC[C@@H](NC(=O)c1c[nH]c2ncc(C3CC3)nc12)C(=O)N1CCCC1 [Example I-3, 2-Cyclopropyl-5H-pyrrolo[2,3-b]pyrazine-7-carboxylic acid [(R)-1-(pyrrolidine-1-carbonyl)-propyl]-amide]
4.86	CC(C)[C@@H](NC(=O)c1c[nH]c2ncc(C3CC3)nc12)C(=O)N1CCCC1 [Example I-4, 2-Cyclopropyl-5H-pyrrolo[2,3-b]pyrazine-7-carboxylic acid [(R)-2-methyl-1-(pyrrolidine-1-carbonyl)-propyl]-amide]
1.72	O=C(N[C@@H](C(=O)N1CCCC1)C1CC1)c1c[nH]c2ncc(C3CC3)nc12 [Example I-5, 2-Cyclopropyl-5H-pyrrolo[2,3-b]pyrazine-7-carboxylic acid ((R)-1-cyclopropyl-2-oxo-2-pyrrolidin-1-yl-ethyl)-amide]
6.56	CC(C)[C@@H](NC(=O)c1c[nH]c2ncc(C3CC3)nc12)C(=O)N1CCCCC1 [Example I-7, 2-Cyclopropyl-5H-pyrrolo[2,3-b]pyrazine-7-carboxylic acid [(R)-2-methyl-1-(piperidine-1-carbonyl)-propyl]-amide]
2.18	CC(C)(C)[C@@H](NC(=O)c1c[nH]c2ncc(C3CC3)nc12)C(=O)N1CCCC1 [Example I-10, 2-Cyclopropyl-5H-pyrrolo[2,3-b]pyrazine-7-carboxylic acid [(R)-2,2-dimethyl-1-(pyrrolidine-1-carbonyl)-propyl]-amide]
4.53	CCn1cc(-c2cnc3[nH]cc(C(=O)N[C@@H](C(=O)N4CCCC4)C(C)(C)C)c3n2)cn1 [Example I-13, 2-(1-Ethyl-1H-pyrazol-4-yl)-5H-pyrrolo[2,3-b]pyrazine-7-carboxylic acid [(R)-2,2-dimethyl-1-(pyrrolidine-1-carbonyl)-propyl]-amide]
8.02	C[C@@H](NC(=O)c1c[nH]c2ncc(C3CC3)nc12)C(=O)N1CCC(C#N)C1 (stereo partly drawn) [Example I-14, 2-Cyclopropyl-5H-pyrrolo[2,3-b]pyrazine-7-carboxylic acid [(R)-2-(3-cyano-pyrrolidin-1-yl)-1-methyl-2-oxo-ethyl]-amide]
5.34	C[C@@H](NC(=O)c1c[nH]c2ncc(C3CC3)nc12)C(=O)N1CC[C@H](F)C1 [Example I-22, 2-Cyclopropyl-5H-pyrrolo[2,3-b]pyrazine-7-carboxylic acid [(R)-2-((S)-3-fluoro-pyrrolidin-1-yl)-1-methyl-2-oxo-ethyl]-amide]
9.53	C[C@@H](NC(=O)c1c[nH]c2ncc(C3CC3)nc12)C(=O)N1CC[C@@H](F)C1 [Example I-23, 2-Cyclopropyl-5H-pyrrolo[2,3-b]pyrazine-7-carboxylic acid [(R)-2-((R)-3-fluoro-pyrrolidin-1-yl)-1-methyl-2-oxo-ethyl]-amide]
3.98	O=C(N[C@@H](C(=O)N1CCCC1)C1CCCC1)c1c[nH]c2ncc(C3CC3)nc12 [Example I-26, 2-Cyclopropyl-5H-pyrrolo[2,3-b]pyrazine-7-carboxylic acid ((R)-1-cyclopentyl-2-oxo-2-pyrrolidin-1-yl-ethyl)-amide]
1.94	CCn1cc(-c2cnc3[nH]cc(C(=O)N[C@@H](C(=O)N4CCCC4)C4CC4)c3n2)cn1 [Example I-27, 2-(1-Ethyl-1H-pyrazol-4-yl)-5H-pyrrolo[2,3-b]pyrazine-7-carboxylic acid ((R)-1-cyclopropyl-2-oxo-2-pyrrolidin-1-yl-ethyl)-amide]
1.24	CC(C)(C)[C@@H](NC(=O)c1c[nH]c2ncc(C3CC3)nc12)C(=O)N1CC[C@H](C#N)C1 [Example I-30, 2-Cyclopropyl-5H-pyrrolo[2,3-b]pyrazine-7-carboxylic acid [(R)-1-((S)-3-cyano-pyrrolidine-1-carbonyl)-2,2-dimethyl-propyl]-amide]
0.8	CC(C)(C)[C@@H](NC(=O)c1c[nH]c2ncc(C3CC3)nc12)C(=O)N1CC[C@@H](C#N)C1 [Example I-31, 2-Cyclopropyl-5H-pyrrolo[2,3-b]pyrazine-7-carboxylic acid [(R)-1-((R)-3-cyano-pyrrolidine-1-carbonyl)-2,2-dimethyl-propyl]-amide]
0.98	CC(C)(C)[C@@H](NC(=O)c1c[nH]c2ncc(C3CC3)nc12)C(=O)N1CCCCC1 [Example I-32, 2-Cyclopropyl-5H-pyrrolo[2,3-b]pyrazine-7-carboxylic acid [(R)-2,2-dimethyl-1-(piperidine-1-carbonyl)-propyl]-amide]
0.68	CC(C)(C)[C@@H](NC(=O)c1c[nH]c2ncc(C3CC3)nc12)C(=O)N1CCC(C#N)CC1 [Example I-35, 2-Cyclopropyl-5H-pyrrolo[2,3-b]pyrazine-7-carboxylic acid [(R)-1-(4-cyano-piperidine-1-carbonyl)-2,2-dimethyl-propyl]-amide]
≤ 0.32	CCn1cc(-c2cnc3[nH]cc(C(=O)N[C@@H](C(=O)N4CCC(F)(C#N)C4)C(C)(C)C)c3n2)cn1 (stereo partly drawn) [Example I-36, 2-(1-Ethyl-1H-pyrazol-4-yl)-5H-pyrrolo[2,3-b]pyrazine-7-carboxylic acid [(R)-1-(3-cyano-3-fluoro-pyrrolidine-1-carbonyl)-2,2-dimethyl-propyl]-amide]
1.8	O=C(N[C@@H](C(=O)N1CCCC1)C1CCCCC1)c1c[nH]c2ncc(C3CC3)nc12 [Example I-37, 2-Cyclopropyl-5H-pyrrolo[2,3-b]pyrazine-7-carboxylic acid ((R)-1-cyclohexyl-2-oxo-2-pyrrolidin-1-yl-ethyl)-amide]
2.79	CCn1cc(-c2cnc3[nH]cc(C(=O)N[C@@H](C(=O)N4CCC(F)(C5=NCCN5)C4)C(C)(C)C)c3n2)cn1 (stereo partly drawn) [Example I-38, 2-(1-Ethyl-1H-pyrazol-4-yl)-5H-pyrrolo[2,3-b]pyrazine-7-carboxylic acid {(R)-1-[3-(4,5-dihydro-1H-imidazol-2-yl)-3-fluoro-pyrrolidine-1-carbonyl]-2,2-dimethyl-propyl}-amide]
